Laboratory results published in patent US11572590B2, “Methods for evaluating tumor cell spheroids using 3D microfluidic cell culture device” (Dana-Farber Cancer Institute, Inc., priority 2017, dated 2023).
Read-outs that look alike come from different tables or passages of the source.

How the values were obtained:
off-target kinases [1] = biological target: T1, off-target kinases (Homo sapiens, UniProt O15111); assay: SelectScreen Kinase Profiling, single point inhibition and IC50 for off-target kinases; format: biochemical; conditions: CHUK (IKK alpha), ATP Km app, Adapta
T1 sequence (O15111 1-745): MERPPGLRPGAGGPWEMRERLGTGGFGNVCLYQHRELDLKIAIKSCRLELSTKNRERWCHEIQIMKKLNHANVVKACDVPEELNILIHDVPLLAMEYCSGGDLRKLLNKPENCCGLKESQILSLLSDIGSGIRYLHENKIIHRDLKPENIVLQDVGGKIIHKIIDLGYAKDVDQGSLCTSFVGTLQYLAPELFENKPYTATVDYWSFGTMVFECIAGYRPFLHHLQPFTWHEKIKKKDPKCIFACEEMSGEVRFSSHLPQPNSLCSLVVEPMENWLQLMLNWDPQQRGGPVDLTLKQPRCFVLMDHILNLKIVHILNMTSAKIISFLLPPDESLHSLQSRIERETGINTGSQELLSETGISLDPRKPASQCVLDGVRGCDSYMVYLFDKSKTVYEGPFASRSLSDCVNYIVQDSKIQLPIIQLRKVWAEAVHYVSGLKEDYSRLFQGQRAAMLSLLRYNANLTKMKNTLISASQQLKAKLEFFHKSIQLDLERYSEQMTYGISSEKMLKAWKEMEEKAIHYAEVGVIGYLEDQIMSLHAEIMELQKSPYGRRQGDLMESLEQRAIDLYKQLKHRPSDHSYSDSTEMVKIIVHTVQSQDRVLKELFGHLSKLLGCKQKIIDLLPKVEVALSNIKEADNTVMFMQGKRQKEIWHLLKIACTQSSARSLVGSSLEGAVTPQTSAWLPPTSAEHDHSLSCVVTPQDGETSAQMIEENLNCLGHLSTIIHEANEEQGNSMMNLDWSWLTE
Protocol: (§1) Biochemical single point inhibition and IC50 concentrations for TBK1, IKKε (IKBKE), and off-target kinases were determined at ThermoFisher Scientific using SelectScreen Kinase Profiling Services (Madison, Wis., USA) (Tables S4A and S4B-1-7). To determine cellular potency, the human colorectal cancer carcinoma cell line HCT116 (ATCC, Manassas, Va.) was maintained in T175 flasks in complete RPMI medium; RPMI 1640 supplemented with 10% FBS, 1× Penicillin-Streptomycin solution and 1×MEM (non-essential amino acids). HCT116 cells were grown to 90-95% confluency in T175 flasks containing complete RPMI medium and transfected in bulk using Lipofectamine 2000 (Invitrogen, Carlsbad, Calif.) with 70 μg of ISG54-luciferase reporter plasmid (Elim Biopharmaceuticals Inc., Hayward, Calif.). The reporter plasmid contains a luciferase gene expression cassette under the transcriptional regulation of the promoter of the human interferon stimulated gene 54 (ISG54). Transfection of the cells was allowed to take place for 6 hours, after which the cells were harvested by treatment with 0.25% trypsin EDTA (Corning Inc., Corning, N.Y.). Trypsinized cells were added to 384-well poly-d-lysine treated black clear bottom tissue culture assay plates (Greiner Bio-One GmbH, Kremsmünster, Austria) at a density of 20,000 cells/well in 80 μL of complete RPMI medium and incubated overnight. After 16-18 hours post-transfection, the assay plates were washed with PBS (Corning Inc., Corning, N.Y.), followed by addition of 80 μL/well of serum-free RPMI 1640 medium containing 1× Penicillin-Streptomycin solution, 1×MEM and 350 nL of DMSO or titrations of Compound 1. Compound 1 titrations were generated by 1.5-fold dilution steps in two overlapping serial dilution series to generate a 40-point compound dose range. After incubation at 37° C. for 1 hour, the cells were stimulated with Poly(I:C) (InvivoGen, San Diego, Calif.) at a final concentration of 15 μg/mL in Optimem media (Life Technologies, Rockville, Md.). The assay plates were incubated for 5 hours at 37° C., followed by addition of One-Glo luciferase firefly reagent (Promega, Madison, Wis.) at 1:1 volume/well and luminescence was measured in an EnVision Multilabel Plate Reader (PerkinElmer, Santa Clara, Calif.). The EC50 values were calculated from the fit of the dose-response curves to a four-parameter equation. All EC50 values represent geometric mean values of a minimum of four determinations.

off-target kinases [2] = biological target: T2, off-target kinases (Homo sapiens, UniProt Q8TF76); assay: as above; format: biochemical; conditions: GSG2 (Haspin); Cmpd1 1000 μM; ATP Km app; Adapta
T2 sequence (Q8TF76 1-798): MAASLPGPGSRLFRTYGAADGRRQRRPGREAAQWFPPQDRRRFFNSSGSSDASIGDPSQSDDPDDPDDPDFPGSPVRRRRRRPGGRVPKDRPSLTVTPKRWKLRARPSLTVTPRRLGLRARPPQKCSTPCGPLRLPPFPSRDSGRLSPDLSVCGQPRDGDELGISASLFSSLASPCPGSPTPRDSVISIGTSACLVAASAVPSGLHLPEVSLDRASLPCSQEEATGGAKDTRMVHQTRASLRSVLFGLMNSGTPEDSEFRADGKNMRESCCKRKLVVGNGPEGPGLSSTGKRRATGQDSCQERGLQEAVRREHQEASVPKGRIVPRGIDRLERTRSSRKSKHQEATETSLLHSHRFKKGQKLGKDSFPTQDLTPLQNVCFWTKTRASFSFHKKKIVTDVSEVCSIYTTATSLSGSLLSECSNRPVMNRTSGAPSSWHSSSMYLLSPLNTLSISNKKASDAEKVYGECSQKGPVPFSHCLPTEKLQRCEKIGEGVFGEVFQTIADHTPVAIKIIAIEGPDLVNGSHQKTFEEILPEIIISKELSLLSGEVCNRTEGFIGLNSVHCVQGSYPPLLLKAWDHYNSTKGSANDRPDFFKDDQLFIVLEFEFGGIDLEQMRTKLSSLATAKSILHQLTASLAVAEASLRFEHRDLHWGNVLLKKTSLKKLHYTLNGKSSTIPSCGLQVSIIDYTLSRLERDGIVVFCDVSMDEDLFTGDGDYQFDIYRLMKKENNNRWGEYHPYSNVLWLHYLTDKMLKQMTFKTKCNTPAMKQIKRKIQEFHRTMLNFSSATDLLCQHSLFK
Protocol: as §1

With N#Cc1cc(-c2ncnc(Nc3ccc(N4CCN(C5COC5)CC4)cc3)n2)ccc1OC1CCOCC1 [Compound 1, 5-(4-((4-(4-(oxetan-3-yl)piperazin-1-yl)phenyl)amino)-1,3,5-triazin-2-yl)-2-((tetrahydro-2H-pyran-4-yl)oxy)benzonitrile] as the compound, how does the inhibition (off-target kinases [1]; read-out: % Inhibition 1) read?
The inhibition was 65%.

And the inhibition (off-target kinases [1]; read-out: % Inhibition 2)?
The inhibition was 50%.

What about the inhibition (off-target kinases [1]; read-out: % Inhibition Avg) of the same compound?
The inhibition was 58%.

And the “% Inhibition 1” value (off-target kinases [2])?
Its value is 7%.

What about the “% Inhibition 2” value (off-target kinases [2]) of the same compound?
The value was −20%.

What about the “% Inhibition Avg” value (off-target kinases [2]) of the same compound?
The value was −6%.
